Results: patent publication US12302928B2, “Application of acylated derivative of amino acid in preparation of animal feed additive” (ANIPHA TECHNOLOGIES PTY LTD, priority 2018, dated 2025)
Like-named read-outs stand apart in the source and are kept apart here.

Columns and labels:
[1] = tested on: yellow-feathered broilers; test: Breeding test B3: effect on the production performance of broilers; assay type: in vivo; conditions: 300 ppm in basal daily ration, 20 days; for ADFI (average daily feed intake): 1-day-old broilers; for FCR (feed conversion ratio): ADFI/ADG
Text: The test adopted a single-factor random design. 1,080 1-day-old yellow-feathered broilers with similar body weight and the average weight of 50 g were selected and randomly divided into 9 groups, with 6 replications per group and 20 yellow-feathered broilers (half of male and female) per replication. The poultry houses and utensils were sterilized before the test. During the test period, the yellow-feathered broilers were housed in the same poultry house under the same feeding and management conditions. The basal daily ration was mainly corn-soybean meal, and no other antioxidant components and growth promoters were added additionally during the entire feeding process. The test groups were the control group (group I) and the test groups II˜IX, respectively. The basal daily ration was only given for the control group, and 300 ppm of different acylated derivatives of the aminobutyric acid were added into the basal daily ration for the test groups II˜IX.
The test period was 20 days. The test broilers were free to drink water and eat feed, and were fed twice a day. With each repetition as a unit, the test broilers were weighed at the age of 21 days (stopping feed for 12 hours, without stopping water), the feed consumption of test broilers were recorded, and the average daily feed intake (ADFI, g/d*each broiler), the average daily gain (ADG, g/d*each broiler) and feed conversion ratio (FCR) were calculated for each of the test groups. The formula for calculation was as follows: Feed conversion ratio (FCR)=average daily feed intake/average daily gain.

Jingbai laying hens = test: Breeding test B2: effect on the production performance of laying hens; assay type: in vivo; conditions: 150 ppm in basal daily ration, 158 days; for EPR (egg production rate): 147-day-old laying hens
Text: The test adopted a single-factor random design. 1,080 147-day-old Jingbai laying hens with similar body weight were selected and randomly divided into 9 groups, with 6 replications per group and 20 Jingbai laying hens per replication. The poultry houses and utensils were sterilized before the test. During the test period, the Jingbai laying hens were cage cultured in the same poultry house under the same feeding and management conditions. The basal daily ration was mainly corn-soybean meal, and no other antioxidant ingredients and growth promoters were added additionally during the entire feeding process. The test groups were the control group (group I) and the test groups II˜IX, respectively. The basal daily ration was only given for the control group, and 150 ppm of different acylated derivatives of the aminobutyric acid were added into the basal daily ration for the test groups II˜IX. The pre-feeding period was 10 days, and the test period was 158 days. The test laying hens were free to drink water and eat feed, and were fed twice a day. The test takes each repetition as a unit, and records the total egg number, the egg production, and the feed intake every day, and calculates the egg production rate (EPR), the average daily feed intake (ADFI, g/d), the egg weight (EW, g) and the feed-to-egg ratio (FER) of the laying hens during the entire test. The formula for calculation was as follows: Egg production rate (%)=average daily total egg number/number of laying hens×100; Egg weight (g)=average daily total egg weight/average daily total egg number; Feed-to-egg ratio=average daily feed intake/egg weight.

[2] = tested on: Duroc×Landrace×Yorkshire cross-bred bacon-type pigs; test: Breeding test B1: effect on the production performance of pigs; assay type: in vivo; conditions: 400 ppm in basal daily ration, 28 days; for ADFI (average daily feed intake) / ADG (average daily gain): 65-day-old pigs; for FCR (feed conversion ratio): ADFI/ADG
Text: 270 65-day-old Duroc×Landrace×Yorkshire cross-bred bacon-type pigs with similar body weight were randomly divided into 9 groups, with 3 replications per group and 10 pigs (half of male and female) per replication. The pigpens and utensils were sterilized before the test. During the test period, the test pigs were free-stall housed in the same pigpen under the same feeding and management conditions. During the test period, the test pigs were free to drink water and eat feed, and test pigs were fed twice a day. The test groups were the control group (group I) and the test groups II˜IX, respectively. Wherein the basal daily ration was only given for the control group, and 400 ppm of different acylated derivative of the aminobutyric acid was added into the basal daily ration for the test groups II˜IX.
No other antioxidant ingredients and growth promoters were added for the test groups during the entire feeding process. The test period was 28 days, with each repetition as a unit, the test pigs were weighed at the age of 93 days without stopping water and feed for 12 hours; the average daily feed intake (ADFI, g/d*each pig), the average daily gain (ADG, g/d*each pig) and the feed conversion ratio (FCR) were calculated for each of the test groups. The formula for calculation was as follows: Average daily feed intake=(total amount of feed−remaining amount of feed)/(number of days of test×number of pigs per repetition); Average daily gain=(average body weight at the end of the test−average body weight at the beginning of the test)/number of days of test; Feed conversion ratio=average daily feed intake/average daily gain.

grass carps = test: Breeding test B4: use in fish feed (growth of grass carps); assay type: in vivo; conditions: for change in vivo at 150 ppm, 150 µg/mL: po, 1344 h, read-out: Weight gain rate
Method: The test fishes used were grass carps, and the test was carried out in the aquaculture farm of the test field of Guangzhou Insighter. Healthy, lively, and uniform grass carp fingerlings were fed in large cages for 4 weeks before being used for formal breeding test. The experimental system was a small floating cage. Both the small cage and the temporary cage were placed in a 3500 m^2 pond of the test field, the depth of the pond was about 1.5 m, and the water of the pond was fully aerated in the bottom of the pond. During the test, 360 grass carps that were hungry for 1 day were randomly divided into 9 groups, with 4 replications per group and 10 grass carps per replication. All of the grass carps were weighed, and then were randomly placed in 36 cages and fed with different test feeds. The test feeds were self-prepared, and 150 ppm of different acylated derivatives of the aminobutyric acid were added into the basal feed for different test groups, respectively. The test groups were the control group (group I) and the test groups IIIX, respectively. The basal daily ration was only given for the control group, and 150 ppm of different acylated derivatives of the aminobutyric acid were added into the basal daily ration for the test groups IIIX.
The test adopted time-limited artificial feeding, and the feeding amount was adjusted once a week. The feeding rate of the control group and the feeding rate of the test groups (according to the initial body weight) were exactly the same, and the grass carps were fed twice a day (7:30 and 15:00). The test period was 8 weeks.

[3] = tested on: nephrotoxicity caused by cephalosporin; conditions: rabbit; 150 mg/kg; cephalosporin at a dose of 150 mg/kg; cited from earlier work
glutamate decarboxylase = conditions: cited from earlier work
[4] = tested on: convulsion caused by bicuculline or corazol; conditions: cited from earlier work
[5] = after subcutaneous injection; cited from earlier work

SMILES	ADG (average daily gain) [1]	ADFI (average daily feed intake) [1]	FCR (feed conversion ratio) [1]	ADFI (average daily feed intake) (Jingbai laying hens)	EW (egg weight) (Jingbai laying hens)	EPR (egg production rate) (Jingbai laying hens)	ADFI (average daily feed intake) [2]	ADG (average daily gain) [2]	FCR (feed conversion ratio) [2]	(FCR) (grass carps; 150 ppm in basal feed, 8 weeks)	Average final weight (grass carps; 150 ppm in basal feed, 8 weeks)	change in vivo at 150 ppm, 150 µg/mL (grass carps; 150 ppm in basal feed, 8 weeks)	protection of the kidney from cephalosporin nephrotoxicity [3]	inhibition of glutamate decarboxylase (glutamate decarboxylase)	antagonism of convulsion [4]	change in vivo at 150 ppm, 150 µg/mL (grass carps)	time to maximum blood concentration [5]
NCCCC(=O)NCCCC(=O)O [N-(γ-aminobutyryl)-γ-aminobutyric acid]	14.62 g/d * each broiler	28.94 g/d * each broiler	1.98	160 g/day	55.24 g	84.4%	1831 g/d * each pig	693 g/d * each pig	2.642	1.80	707 g	83.7%					
CC(=O)NCCCC(=O)O [N-acetyl-γ-aminobutyric acid]	15.15 g/d * each broiler	31.06 g/d * each broiler	2.05	160 g/day	55.24 g	82.2%	1827 g/d * each pig	723 g/d * each pig	2.665	1.81	733 g	77.6%					
O=C(O)CCCNC(=O)c1ccccc1 [N-benzoyl-γ-aminobutyric acid]	14.13 g/d * each broiler	27.56 g/d * each broiler	1.95	158 g/day	54.92 g	86.7%	1837 g/d * each pig	699 g/d * each pig	2.628	1.79	721 g		can significantly protect the kidney	can inhibit a glutamate decarboxylase	can antagonize the convulsion	81.6%	≤ 5 min
NCC(=O)NCCCC(=O)O [N-glycyl-γ-aminobutyric acid]	13.02 g/d * each broiler	26.17 g/d * each broiler	2.01	161 g/day	55.61 g	82.9%	1728 g/d * each pig	651 g/d * each pig	2.655	1.75	755 g					78.2%	
Nc1ccc(C(=O)NCCCC(=O)O)cc1 [N-p-aminobenzoyl-γ-aminobutyric acid]	12.42 g/d * each broiler	25.84 g/d * each broiler	2.08	161 g/day	55.31 g	82.6%	1643 g/d * each pig	632 g/d * each pig	2.601	1.84	713 g	79.2%					
O=C(O)CCCNC(=O)c1ccc(Cl)cc1 [N-p-chlorobenzoyl-γ-aminobutyric acid]	12.32 g/d * each broiler	24.88 g/d * each broiler	2.02	160 g/day	55.07 g	81.4%	1675 g/d * each pig	642 g/d * each pig	2.610	1.77	730 g	81.5%					
O=C(O)CCCNC(=O)c1ccc(O)cc1 [N-p-hydroxybenzoyl-γ-aminobutyric acid]	12.32 g/d * each broiler	24.52 g/d * each broiler	1.99	161 g/day	55.27 g	81.8%	1602 g/d * each pig	611 g/d * each pig	2.620	1.82	710 g	81.5%					
Cc1ccc(C(=O)NCCCC(=O)O)cc1 [N-p-methylbenzoyl-γ-aminobutyric acid]	13.84 g/d * each broiler	27.13 g/d * each broiler	1.96	159 g/day	54.81 g	84.4%	1769 g/d * each pig	672 g/d * each pig	2.631	1.74	739 g	82.1%					
